Data published in ChEMBL document CHEMBL3046071, “Synthesis and microbial evaluation of novel N(1)-Arilidene-N(2)-t(3)-methyl-r(2),c(6)-diaryl-piperidin-4-one azine derivatives” (2006).
≈ marks a conversion by molar mass, not a printed value.

Columns and labels:
Assay type in all cases: functional
Candida [1] = experiment: Antifungal activity against Candida-6
Aspergillus flavus = experiment: Antifungal activity against Aspergillus flavus
Bacillus subtilis = experiment: Antibacterial activity against Bacillus subtilis
Staphylococcus aureus = experiment: Antibacterial activity against Staphylococcus aureus
Escherichia coli = experiment: Antibacterial activity against Escherichia coli
Aspergillus niger = experiment: Antifungal activity against Aspergillus niger
Pseudomonas aeruginosa = experiment: Antibacterial activity against Pseudomonas aeruginosa
Candida [2] = experiment: Antifungal activity against Candida-51
Enterococcus faecalis = experiment: Antibacterial activity against Enterococcus faecalis

Row | Structure (SMILES) | MIC (Candida [1]) [µg/mL] | MIC (Aspergillus flavus) [µg/mL] | MIC (Bacillus subtilis) [µg/mL] | MIC (Staphylococcus aureus) [µg/mL] | MIC (Escherichia coli) [µg/mL] | MIC (Aspergillus niger) [µg/mL] | MIC (Pseudomonas aeruginosa) [µg/mL] | MIC (Candida [2]) [µg/mL] | MIC (Enterococcus faecalis) [µg/mL]
1 | CC1/C(=N/N)CC(c2ccccc2)NC1c1ccccc1 (stereo not given) | 100 (≈ 358 µM) | 100 (≈ 358 µM) | 100 (≈ 358 µM) | 100 (≈ 358 µM) |  |  |  |  | 
2 | CC1/C(=N/N)CC(c2ccco2)NC1c1ccco1 (stereo not given) | 100 (≈ 386 µM) | 100 (≈ 386 µM) | 100 (≈ 386 µM) | 100 (≈ 386 µM) |  |  |  |  | 
3 | CC1/C(=N/N=C/c2ccccc2[N+](=O)[O-])CC(c2ccccc2)NC1c1ccccc1 (stereo not given) | 100 (≈ 242 µM) | 100 (≈ 242 µM) | 50 (≈ 121 µM) | 50 (≈ 121 µM) | 100 (≈ 242 µM) | 50 (≈ 121 µM) | 50 (≈ 121 µM) | 50 (≈ 121 µM) | 100 (≈ 242 µM)
4 | CC1/C(=N/N=C/c2ccccc2O)CC(c2ccccc2)NC1c1ccccc1 (stereo not given) | 50 (≈ 130 µM) | 100 (≈ 261 µM) | 50 (≈ 130 µM) | 50 (≈ 130 µM) | 100 (≈ 261 µM) | 100 (≈ 261 µM) | 50 (≈ 130 µM) | 25 (≈ 65.2 µM) | 50 (≈ 130 µM)
5 | CC1/C(=N/N=C2\CC(c3ccccc3)NC(c3ccccc3)C2C)CC(c2ccccc2)NC1c1ccccc1 (mixture of isomers) | 50 | 100 | 100 | 100 | 50 | 100 | 100 | 100 | 100
6 | C[C@@H]1[C@H](O)[C@@H](C)/C=C/C=C/C=C/C=C/C=C/C=C/C=C/[C@H](O[C@@H]2O[C@H](C)[C@@H](O)[C@H](N)[C@@H]2O)C[C@@H]2O[C@](O)(C[C@@H](O)C[C@@H](O)[C@H](O)CC[C@@H](O)C[C@@H](O)CC(=O)O[C@H]1C)C[C@H](O)[C@H]2C(=O)O [AMPHOTERICIN B] | 25 (≈ 27.1 µM) | 50 (≈ 54.1 µM) |  |  |  | 50 (≈ 54.1 µM) |  | 25 (≈ 27.1 µM) | 
7 | CN[C@@H]1[C@H](O[C@H]2[C@H](O[C@H]3[C@H](O)[C@@H](O)[C@H](N=C(N)N)[C@@H](O)[C@@H]3N=C(N)N)O[C@@H](C)[C@]2(O)C=O)O[C@@H](CO)[C@H](O)[C@H]1O [STREPTOMYCIN] |  |  | 12.5 (≈ 21.5 µM) | 25 (≈ 43 µM) | 12.5 (≈ 21.5 µM) |  | 25 (≈ 43 µM) |  | 50 (≈ 86 µM)

The remaining lines, values ahead:

Row | MIC (Candida [1]) [µg/mL] | MIC (Aspergillus flavus) [µg/mL] | MIC (Bacillus subtilis) [µg/mL] | MIC (Staphylococcus aureus) [µg/mL] | MIC (Escherichia coli) [µg/mL] | MIC (Aspergillus niger) [µg/mL] | MIC (Pseudomonas aeruginosa) [µg/mL] | MIC (Candida [2]) [µg/mL] | MIC (Enterococcus faecalis) [µg/mL] | Structure (SMILES)
8 | 12.5 (≈ 35 µM) | 50 (≈ 140 µM) | 12.5 (≈ 35 µM) | 12.5 (≈ 35 µM) | 25 (≈ 69.9 µM) | 12.5 (≈ 35 µM) | 50 (≈ 140 µM) | 12.5 (≈ 35 µM) | 50 (≈ 140 µM) | CC1/C(=N/N=C/c2ccco2)CC(c2ccccc2)NC1c1ccccc1 (stereo not given)
9 | 12.5 (≈ 32.7 µM) | 50 (≈ 131 µM) | 6.25 (≈ 16.4 µM) | 25 (≈ 65.5 µM) | 12.5 (≈ 32.7 µM) | 25 (≈ 65.5 µM) | 25 (≈ 65.5 µM) | 12.5 (≈ 32.7 µM) | 25 (≈ 65.5 µM) | CC1/C(=N/N=C/c2ccccc2Cl)CC(c2ccco2)NC1c1ccco1 (stereo not given)
10 | 25 | 100 | 12.5 | 50 | 12.5 | 50 | 25 | 50 | 25 | C/C(=N\N=C1/CC(c2ccccc2)NC(c2ccccc2)C1C)c1ccccc1 (mixture of isomers)
11 | 12.5 | 100 | 6.25 | 25 | 12.5 | 50 | 50 | 12.5 | 25 | COc1ccc(/C=N/N=C2\CC(c3ccccc3)NC(c3ccccc3)C2C)cc1 (mixture of isomers)
